Results taken from patent US20230414624A1, “METHODS OF TREATING NEUROLOGICAL VENTILATORY INSUFFICIENCY” (Enalare Therapeutics Inc., priority 2022, published 2023).
“Also recorded” adds a separate entry of the source.

Legend:
[1] = system: adult humans; details: 0.4 mg/kg/hr infusion; cited from earlier work
[2] = system: premature lambs; test: Premature (preterm) lamb proof of concept study: spontaneous ventilation under IV bolus and ascending continuous infusion; assay type: in vivo
Procedure: One set of twin lambs were to be delivered premature via cesarian section, stabilized and managed for four hours. […] The protocol was reviewed and approved by the Institutional Animal Care and Use Committee at Thomas D. Morris, Inc., where the study was conducted.
During delivery and with local anesthesia (1 ml; 2% Lidocaine), lambs were instrumented with an endotracheal tube as well as carotid arterial and jugular catheters through an incision at approximately the midpoint of the anterior neck. Once the umbilical cord was tied and severed, lambs were transferred to a heated surgical bed under a radiant warming lamb. The arterial catheter was connected to a transducer for pressure monitoring and the venous catheter was connected to a pump for continuous infusion of 5% dextrose in water (D5W) at a rate of 6 ml/kg/hr. A reaction thermistor was inserted to monitor temperature and lambs were covered with plastic to minimize evaporative heat loss. The airway was suctioned and Surfactant (Curosurf, 2.5 ml/kg) was administered intratracheally over a period of 5 minutes in 4 positions (Trendelenburg, reverse Trendelenburg, and left and right lateral decubitus positions). Lambs were to receive four mechanical breaths for lung recruitment and then started on CPAP initiated at 5 cmH2O and continuously optimized to effect (4-8 cmH2O) along with fraction of inspired oxygen (FIO2) over the course of the study.
The formulation used was a 10 mg/mL aqueous solution (adjusted for the hydrogen sulfate salt and impurities) with a citric acid buffer and a pH of 3.2. The infusion was with ascending dose hourly, while the second lamb was to serve as sham control. […] The four, hourly doses are described in table 1.
For pulmonary function assessments, a pneumotach was placed between the endotracheal tube and the CPAP connector. At least ten representative breaths free of movement of atypical breathing artifact were recorded using a pulmonary function system designed for neonatal research (NewLifeBox-R, Advanced Life Diagnostics, Weener, Germany). For each period the rate, tidal volumes and minute ventilation was derived from an average of the ten breaths. To maintain a stable plain of anesthesia, repeat doses of fentanyl (1 μg IM) were given as needed throughout the protocol based on blood pressure response to stimulation. At the conclusion of the study, animals were sacrificed and tissue sampled harvested for subsequent histopathology.

[3] = 3 mg/kg IV bolus, animals; cited from earlier work
[4] = test lamb, ascending hourly infusion

In the case of CCCNc1nc(NCCC)nc(N(C)OC)n1 [Compound 1, N-(4,6-Bis-n-propylamino-[1,3,5]triazin-2-yl)-O,N-dimethyl-hydroxylamine], the “Efficacy of the low dose in adult humans” value [1] is given as “minimal effect; also recorded: limited efficacy; also recorded: humans; minimal efficacy”, the “Spontaneous breathing, both lambs” value ([2]; after bolus administration of a loading dose) is given as “immediately resulted in spontaneous breathing in both lambs” and the “Respiratory rate (RR), course over the four hours” value ([2]; in vivo) is given as “gradually decreased”. The “Spontaneous breathing after IV bolus” value ([2]; sham lamb 4.1 kg, no spontaneous breathing before, single IV bolus 2.4 mg/kg, no infusion) was “the lamb began breathing spontaneously. After several minutes, the spontaneous breathing efforts abated”, the “Spontaneous breathing after IV bolus loading dose” value ([2]; test lamb 3.2 kg, no spontaneous breathing before, IV bolus 3.1 mg/kg during 0.4 mg/kg/hr infusion, then continuous infusion for four hours) was “the lamb began breathing spontaneously and never again required manual intervention” and the “Spontaneous minute ventilation (MV) at baseline and for 10 minutes after start of infusion” value ([2]; test lamb, 0.4 mg/kg/hr infusion without loading dose) was “zero”. The “Spontaneous minute ventilation (MV) immediately following the bolus loading dose” value ([2]; test lamb, IV bolus 3.1 mg/kg) was “approximately 1,100 mL/min”, the “End tidal carbon dioxide level (EtCO2), course over the four hours” value [2, 4] was “concomitant decrease; also recorded: progressive decline” and the “Heart rate and mean arterial pressure through the four hours” value [2, 4] was “stable”. The “Tidal volume, course over the four hours” value [2, 4] was “consistent rise”, the “Minute ventilation (MV), course over the four hours” value ([2]; test lamb, ascending hourly infusion 0.4, 1.1, 2.0, 12 mg/kg/hr) was “continued to rise” and the “Minute ventilation (MV), all but the first three measurements of spontaneous breathing” value ([2]; test lamb, ascending hourly infusion, 1,344 mL/min = maximal MV of literature mechanical ventilation) was “exceeded 1,344 mL/min”. For the same compound, the “Tidal volume per kg of body weight versus lung protective range” value ([2]; test lamb, ascending hourly infusion, range 4 to 6 mL/kg) was “at least as deep and ultimately surpassed the lung protective range of 4 to 6 mL/kg; also recorded: always within or above the noted target tidal volume range”, the Respiratory rate ([2]; test lamb, whole study period, normal newborn lamb 36 to 48) was at least 70 breaths per minute and the “Plasma levels after bolus intravenous injection” value [3] was “transient therapeutic plasma levels”.
